For data set [1], the species on record is Mus musculus. In words: Toxicity in mouse assessed as effect on central nervous system. It is filed as organism-based. The following applies: in vivo.
In data set [2] the test system is Mus musculus. In words: Induction of taming effect in po dosed mouse by foot shock method. The class given is functional.
Data set [3] relates to Felis catus. In words: Muscle relaxing activity in po dosed cat. The class given is functional.
The subject of data set [4] is Mus musculus. The data set can be described thus: Induction of muscle relaxation/sedation in po dosed mouse by inclined screen test. The class given is functional.
The test system of data set [5] is Mus musculus. The data set can be described thus: Anticonvulsant activity in po dosed mouse assessed as reduction of minimal electroshock-induced seizures. The class given is functional.
The subject of data set [6] is Mus musculus. In words: Anticonvulsant activity in po dosed mouse assessed as reduction of pentylenetetrazole-induced seizures. It is filed as functional.
For data set [7], the system named is Mus musculus. In words: Anticonvulsant activity in po dosed mouse assessed as reduction of maximal electroshock-induced seizures. It is filed as functional.
Data set [8] concerns Rhesus monkey. In words: Induction of taming effect in monkey by foot shock method. The class given is functional, organism-based. As to conditions: Macaca mulatta.
The species entered for data set [9] is Mus musculus. In words: Toxicity in mouse. The following applies: in vivo. It is filed as organism-based.

This is an account of results in ChEMBL document CHEMBL3227970, “The benzodiazepine story” (J Med Chem, 1979).

Where “and” joins values, the source holds several entries; their conditions need not be identical. Identical values can stand only once. Calls of active or inactive are those of the source. The calls are words filed in the database; no cut-off is given here.

Consider `COC(=O)[C@H]1[C@H]2C[C@@H]3c4[nH]c5cc(OC)ccc5c4CCN3C[C@H]2C[C@@H](OC(=O)c2cc(OC)c(OC)c(OC)c2)[C@@H]1OC` [RESERPINE], for which the Activity result in data set [1] is reported as “Toxic”.

For the molecule `CN(C)CCCN1c2ccccc2Sc2ccc(Cl)cc21` [CHLORPROMAZINE], the Activity in data set [2] was 20 mg/kg; in data set [1], “Toxic”; in data set [3] it was 2.5 mg/kg; in data set [4], 17 mg/kg; in [5], 600 mg/kg; in [6] it was 42 mg/kg. The Activity in data set [7] worked out at 150 mg/kg.

`CN1C(=O)CN=C(c2ccccc2)c2cc(Cl)ccc21` [DIAZEPAM]: the Activity in data set [4] is 75 mg/kg and 30 mg/kg.

In the case of `O=C1C[N+]([O-])=C(c2ccccc2)c2cc(Cl)ccc2N1` [DEMOXEPAM], the Activity in data set [2] is 20 mg/kg; in [3] it was 2 mg/kg; in [4], 100 mg/kg; in data set [5], 150 mg/kg; in [6], 15 mg/kg; in data set [7], 150 mg/kg.

Take `CNC1=Nc2ccc(Cl)cc2C(c2ccccc2)=[N+]([O-])C1.Cl` [CHLORDIAZEPOXIDE HYDROCHLORIDE]: the result in data set [8] was Active. Moreover, the Activity in data set [2] was 40 mg/kg; in data set [1] it was “Non-toxic”; in data set [9] it was 620 mg/kg; in [3], 2 mg/kg; in data set [4], 100 mg/kg; in data set [5] it was 150 mg/kg. Also, the values for the Activity in data set [6] and in data set [7] were 18 mg/kg and 92 mg/kg, respectively.

On to `CCC1(c2ccccc2)C(=O)NC(=O)NC1=O` [PHENOBARBITAL], for which the Activity in data set [2] worked out at 80 mg/kg; in [3], 10 mg/kg; in [4] it was 120 mg/kg; in data set [5], 90 mg/kg; in data set [6], 75 mg/kg; in data set [7], 18 mg/kg.

Regarding `CCCC(C)(COC(N)=O)COC(N)=O` [MEPROBAMATE], the Activity in [2] was found to be 250 mg/kg; in data set [3], 100 mg/kg; in data set [4], 250 mg/kg; in data set [5], 167 mg/kg; in [6], 150 mg/kg; in data set [7], 200 mg/kg.
